Test systems include A549 NSCLC; CAKI-1 renal; DU-145 prostate; EKVX NSCLC; HCT-116 colon; HCT-15 colon; MOLT-4 leukemia; NCI-H522 lung; OVCAR-3 ovarian; SF-295 CNS.
Assay in all cases: NCI tumour cell line growth inhibition, 48 h

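Results reflect a 48-hour exposure of cells in 96-well plates to compound at five concentrations. Abbreviation: GI50, concentration required for 50% inhibition of growth. TGI: concentration producing complete growth inhibition.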

Turning to `O=C(NCCOCCOCCOCCNC(=O)c1cc2c(o1)C(=O)c1ccccc1C2=O)NC12CC3CC(CC(C3)C1)C2`, the GI50 in the experiment with A549 NSCLC was 0.517 µM; with CAKI-1 renal it was 2.37 µM; in the experiment with DU-145 prostate it was 0.628 µM; in the experiment on EKVX NSCLC it was 2.57 µM; in the experiment with HCT-116 colon, 2.4 µM; with HCT-15 colon, 1.58 µM. Besides, the GI50 was 2.87 µM with MOLT-4 leukemia, 1.78 µM in the experiment on NCI-H522 lung, 1.41 µM in the experiment with OVCAR-3 ovarian and 1.65 µM in the experiment with SF-295 CNS. Further, the TGI is 2.34 µM with A549 NSCLC; 11.5 µM with CAKI-1 renal; 1.89 µM with DU-145 prostate; 7.07 µM in the experiment with EKVX NSCLC; 8.95 µM in the experiment with HCT-116 colon; 3.68 µM in the experiment on HCT-15 colon. Moreover, the TGI with MOLT-4 leukemia stood at 8.04 µM; in the experiment on NCI-H522 lung, 4.95 µM; in the experiment with OVCAR-3 ovarian, 4.4 µM; with SF-295 CNS, 3.07 µM.

For the molecule `CC(=O)/C(Br)=C/c1ccc(Br)o1`, the GI50 in the experiment on A549 NSCLC is 26.8 µM; in the experiment with CAKI-1 renal it was 6.05 µM; in the experiment on DU-145 prostate it was 6.19 µM; in the experiment on EKVX NSCLC, 14.6 µM; in the experiment on HCT-116 colon, 2.13 µM; in the experiment on HCT-15 colon, 4.2 µM. The GI50 was 3.03 µM in the experiment with MOLT-4 leukemia, 2.78 µM in the experiment with NCI-H522 lung, 4.16 µM with OVCAR-3 ovarian and 18.7 µM with SF-295 CNS. For the same molecule, the TGI with A549 NSCLC turned out to be 86.4 µM; in the experiment on CAKI-1 renal it was 12.4 µM; with DU-145 prostate, 18.3 µM; in the experiment with EKVX NSCLC it was 28.1 µM; in the experiment on HCT-116 colon, 5.89 µM; in the experiment with HCT-15 colon it was 16.1 µM. The TGI in the experiment on MOLT-4 leukemia was 15.3 µM; in the experiment on NCI-H522 lung, 8.14 µM; in the experiment with OVCAR-3 ovarian it was 14.5 µM; in the experiment with SF-295 CNS, 38.7 µM.

For `CCCCCCCCCCCCN=C(N)c1ccc(N2CCN(c3ccc(C(N)=NCCCCCCCCCCCC)cc3)CC2)cc1`, the GI50 in the experiment with A549 NSCLC was 11.1 µM; in the experiment on CAKI-1 renal, 32.3 µM; in the experiment on DU-145 prostate it was 3.57 µM; in the experiment with EKVX NSCLC it was 9.76 µM; with HCT-116 colon it was 6.9 µM; with HCT-15 colon it was 35 µM. The GI50 in the experiment on MOLT-4 leukemia was 4.4 µM; with NCI-H522 lung, 3.42 µM; in the experiment on OVCAR-3 ovarian, 8.66 µM; with SF-295 CNS, 7.66 µM. For the same molecule, the TGI in the experiment with A549 NSCLC was 30.5 µM; in the experiment on CAKI-1 renal it was more than 50 µM; in the experiment with DU-145 prostate, 14.3 µM; with EKVX NSCLC, 20.5 µM; in the experiment with HCT-116 colon, 13.8 µM; in the experiment on HCT-15 colon, more than 50 µM. Moreover, the TGI was more than 50 µM with MOLT-4 leukemia, 31.2 µM in the experiment with NCI-H522 lung, 20.7 µM in the experiment with OVCAR-3 ovarian and 18.1 µM in the experiment on SF-295 CNS.

Turning to `O=C1Nc2ccccc2/C1=C\c1nc(-c2ccccc2F)n2ccccc12`, the GI50 was 3.46 µM in the experiment with A549 NSCLC; 3.26 µM in the experiment with DU-145 prostate; 10.6 µM with EKVX NSCLC; 1.97 µM in the experiment on HCT-116 colon; 13 µM in the experiment on HCT-15 colon; 28.2 µM in the experiment with MOLT-4 leukemia. Also, the GI50 in the experiment with NCI-H522 lung is 2.18 µM; with OVCAR-3 ovarian, 1.9 µM; with SF-295 CNS, 3.68 µM. Also, the TGI with A549 NSCLC was 10.3 µM; in the experiment on DU-145 prostate, 12.9 µM; in the experiment on EKVX NSCLC, 28.3 µM; in the experiment with HCT-116 colon, 4.04 µM; in the experiment with HCT-15 colon, more than 100 µM; in the experiment with MOLT-4 leukemia it was more than 100 µM. The TGI was determined as 7.37 µM in the experiment on NCI-H522 lung, 4.38 µM in the experiment with OVCAR-3 ovarian and 13.7 µM in the experiment on SF-295 CNS.

Turning to `[N-]=[N+]=NCCCn1c2c(c3ccc([N+](=O)[O-])cc3c1=O)C(=O)c1cc(-c3ccccc3)ccc1-2`, the GI50 with A549 NSCLC, in the experiment on CAKI-1 renal, in the experiment on DU-145 prostate, in the experiment with EKVX NSCLC, in the experiment on HCT-116 colon and in the experiment with HCT-15 colon was more than 100 µM throughout. For the same molecule, the GI50 in the experiment with NCI-H522 lung, in the experiment with OVCAR-3 ovarian and in the experiment with SF-295 CNS was more than 100 µM each time. Besides, the TGI in the experiment with A549 NSCLC, with CAKI-1 renal, with DU-145 prostate, in the experiment on EKVX NSCLC, with HCT-116 colon and in the experiment with HCT-15 colon was more than 100 µM throughout. Further, the TGI in the experiment with NCI-H522 lung, with OVCAR-3 ovarian and in the experiment on SF-295 CNS was more than 100 µM in each case.

On to `CCN1C(=O)N(CC)C2C1NN=c1s/c(=C3\C(=O)N(C4CCCC4)c4ccccc43)c(=O)n12` (stereo not given), for which the GI50 is 1.55 µM in the experiment on A549 NSCLC; 0.519 µM in the experiment on CAKI-1 renal; 2.25 µM in the experiment with DU-145 prostate; 3.36 µM in the experiment on EKVX NSCLC; 0.479 µM in the experiment with HCT-15 colon; 3.42 µM in the experiment on MOLT-4 leukemia. In addition, the GI50 in the experiment with NCI-H522 lung is 0.573 µM; with OVCAR-3 ovarian it was 0.516 µM; with SF-295 CNS, 1.6 µM. Besides, the TGI was more than 100 µM in the experiment with A549 NSCLC; more than 100 µM with CAKI-1 renal; 6.59 µM in the experiment with DU-145 prostate; more than 100 µM in the experiment on EKVX NSCLC; more than 100 µM with HCT-15 colon; more than 100 µM in the experiment on MOLT-4 leukemia. The TGI with NCI-H522 lung is 5.57 µM; in the experiment on OVCAR-3 ovarian, 2.09 µM; in the experiment with SF-295 CNS, 14.4 µM.

Regarding `COS(C)(=O)=O`, the TGI in the experiment on A549 NSCLC, in the experiment on CAKI-1 renal, in the experiment on DU-145 prostate, with EKVX NSCLC, with HCT-116 colon and in the experiment on HCT-15 colon was more than 2 µM in each case. The TGI with MOLT-4 leukemia, with NCI-H522 lung and in the experiment on OVCAR-3 ovarian was more than 2 µM throughout.

For the molecule `O=C(Nc1cc(Cl)ccc1O)c1ccccc1Nc1ccnc(C(F)(F)F)c1`, the GI50 in the experiment on A549 NSCLC is 3.38 µM; in the experiment with CAKI-1 renal, 2.24 µM; in the experiment on DU-145 prostate it was 3.69 µM; in the experiment with EKVX NSCLC, 2.92 µM; in the experiment on HCT-116 colon, 2.2 µM; in the experiment with HCT-15 colon it was 3.55 µM. Further, the GI50 was 2.52 µM in the experiment with MOLT-4 leukemia, 1.7 µM in the experiment with OVCAR-3 ovarian and 2.5 µM in the experiment on SF-295 CNS. In addition, the TGI with A549 NSCLC was 13.1 µM; in the experiment on CAKI-1 renal it was 7.34 µM; with DU-145 prostate, 14.1 µM; in the experiment with EKVX NSCLC it was 10.4 µM; with HCT-116 colon, 5.63 µM; in the experiment on HCT-15 colon it was more than 100 µM. The TGI in the experiment with MOLT-4 leukemia was found to be 6.94 µM; with OVCAR-3 ovarian, 4.8 µM; in the experiment on SF-295 CNS, 6.78 µM.

As for `COc1cc2ncnc(Nc3ccc(Oc4ccnc(C)c4)c(C)c3)c2cc1NC(=O)CC1CCSS1` (stereo not given), the GI50 in the experiment on CAKI-1 renal was 1.31 µM; with DU-145 prostate, 1.44 µM; with EKVX NSCLC, 1.36 µM; with HCT-15 colon, 1.04 µM; in the experiment with MOLT-4 leukemia, 0.134 µM; with NCI-H522 lung it was 0.861 µM. Also, in the experiment with OVCAR-3 ovarian, the GI50 is 0.853 µM. The TGI is more than 14.5 µM in the experiment on CAKI-1 renal; 6.31 µM with DU-145 prostate; more than 50 µM with EKVX NSCLC; 2.31 µM in the experiment on HCT-15 colon; 0.435 µM in the experiment with MOLT-4 leukemia; 2.19 µM in the experiment on NCI-H522 lung. The TGI in the experiment on OVCAR-3 ovarian turned out to be 1.6 µM.

In the case of `O=C(Nc1cc(F)c(F)cc1C(=O)O)c1ccc(-n2ccnc2)nn1`, the GI50 in the experiment with A549 NSCLC, in the experiment with CAKI-1 renal, in the experiment with DU-145 prostate, with EKVX NSCLC, in the experiment with HCT-116 colon and in the experiment on HCT-15 colon was more than 100 µM in each case. For the same molecule, the GI50 with MOLT-4 leukemia is more than 100 µM; in the experiment on OVCAR-3 ovarian it was 42.4 µM; in the experiment on SF-295 CNS, more than 100 µM. Also, the TGI with A549 NSCLC, in the experiment with CAKI-1 renal, in the experiment on DU-145 prostate, with EKVX NSCLC, in the experiment on HCT-116 colon and with HCT-15 colon was more than 100 µM throughout. The TGI with MOLT-4 leukemia, with OVCAR-3 ovarian and with SF-295 CNS was more than 100 µM each time.

`NCCCNc1nc2ccccc2c2c(=O)c3cccc(Cl)c3sc12`: the GI50 in the experiment on CAKI-1 renal is 1.28 µM; with DU-145 prostate, 1.74 µM; in the experiment on EKVX NSCLC, 1.43 µM; in the experiment on HCT-116 colon, 1.34 µM; with HCT-15 colon, 1.64 µM; in the experiment on NCI-H522 lung it was 1.76 µM. Moreover, the GI50 with SF-295 CNS is 1.71 µM. In addition, the TGI in the experiment on CAKI-1 renal came out at 2.68 µM; with DU-145 prostate, 3.46 µM; in the experiment with EKVX NSCLC it was 2.8 µM; in the experiment with HCT-116 colon it was 2.7 µM; with HCT-15 colon, 3.16 µM; with NCI-H522 lung, 3.6 µM. Also, in the experiment with SF-295 CNS, the TGI was 3.14 µM.

Regarding `O=C(/C=C/c1ccccn1)c1ccc(OCc2nnc(-c3ccc(Cl)cc3)o2)cc1`, the GI50 in the experiment on A549 NSCLC is 2.06 µM; in the experiment with CAKI-1 renal it was 1.69 µM; in the experiment with DU-145 prostate, 1.62 µM; in the experiment on HCT-116 colon, 0.45 µM; in the experiment with HCT-15 colon, 1.62 µM; in the experiment with MOLT-4 leukemia, 2.91 µM. Besides, the GI50 in the experiment on NCI-H522 lung was 1.89 µM; in the experiment on OVCAR-3 ovarian it was 1.73 µM; in the experiment with SF-295 CNS it was 1.68 µM. In addition, the TGI in the experiment on A549 NSCLC was 4.82 µM; in the experiment with CAKI-1 renal, 3.24 µM; in the experiment on DU-145 prostate, 3.02 µM; in the experiment on HCT-116 colon, 1.62 µM; in the experiment with HCT-15 colon, 3.36 µM; in the experiment on MOLT-4 leukemia, 6.68 µM. The TGI was 3.94 µM with NCI-H522 lung, 3.25 µM in the experiment with OVCAR-3 ovarian and 3.33 µM with SF-295 CNS.

These data come from PubChem BioAssay (NCI).
